Entries after “also recorded” stand apart in the source; their conditions may differ.

The test system of one experiment is H. megidis. As to conditions: concentrations up to 200 ug/ml; cited from earlier work.
The test system of experiment [1] is a variety of nematode species, including Caenorhabditis elegans and Meloidogyne incognita. As to conditions: 100 ppm; cited from earlier work.
Experiment [2] relates to Heterorhabditis bacteriophora. Description: Toxicity test, infective juveniles (J3) of Heterorhabditis bacteriophora. To be noted: 200 ppm, up to 168 hrs of exposure. Type of experiment: in vivo. How it is done: Toxicity tests were conducted using infective juveniles (J3) of H. bacteriophora collected from infested Galleria mellonella larvae. Test solution (280 ul) was placed in a well of a 96-well plate and 20 ul aqueous solution containing nematodes was added. The nematodes in 20 ul solution ranged from 15 to 21 (n=10). Plates were sealed with Parafilm™ and incubated at room temperature. Similar tests conducted with 0.2% DMSO alone served as controls. Stock solution prepared in DMSO was added to wells to achieve 200 ppm. Nematode mortality was checked at 24, 48, 72, 120, and 168 hr after incubation. Nematodes that were motionless for 30 seconds when observed under stereo microscope were considered dead and included in mortality counts. Each concentration was replicated five times.
This broad cross resistance supports a role for AT blockers in the action of these compounds.

The test system of experiment [3] is voltage-gated chloride channels. As to conditions: cited from earlier work.

In the case of `CC(C)c1c(O)cc(/C=C/c2ccccc2)cc1O` [DST], the “sensitivity to DST” value with H. megidis is reported as “completely insensitive”. Further, the 24 hr lethality in experiment [1] was 100%. With `CCOP(=S)(OCC)Oc1nc(Cl)c(Cl)cc1Cl` [chlorpyrifos], in experiment [2], the “toxicity (FIG. 4)” value is “fully susceptible; also recorded: quite active in killing”. As for `Cl[C@H]1[C@H](Cl)[C@@H](Cl)[C@@H](Cl)[C@H](Cl)[C@H]1Cl` [lindane], the “potency as inhibitor of [35S]TBPS binding, Torpedo membranes versus rat brain” value in experiment [3] is “about 4 fold”.

(Values after US20080103205A1, “Pesticidal compositions and methods of use” (priority 2006, published 2008).)
